{
  "source": "paper PMC5120204",
  "about": "“Identification of an orally active small-molecule PTHR1 agonist for the treatment of hypoparathyroidism” (Nature Communications, 2016)",
  "key": {"[1]": {"biological_target": "T1, hPTHR1–hPTHR2 chimeric receptors (C1, C2, C3) and mutant hPTHR1s (M24, M25, M26, M414V, P415L, L416V) (Homo sapiens, UniProt Q03431, A426C/A97V/D353E/D94P/DEL429-429/E431S/E93Y/E96D/G100Y/G350R/I363Y/K359I/K95Y/L436G/L446F/M425V/M445L/N348D/N358D/Q438E/Q440R/S101A/S341V/S356A/S370A/S433T/T349A/T427L/T430H/T435L/T99D/V334A/V338A/V340A/V342A/V365A/V372G/V432F/V439I/Y443C)", "T1 construct": "expressed in transfected cells; host or cells: COS-7 (transient)", "T1 sequence (Q03431 other isoform, or with tags, fused parts or gaps with the stated changes)": "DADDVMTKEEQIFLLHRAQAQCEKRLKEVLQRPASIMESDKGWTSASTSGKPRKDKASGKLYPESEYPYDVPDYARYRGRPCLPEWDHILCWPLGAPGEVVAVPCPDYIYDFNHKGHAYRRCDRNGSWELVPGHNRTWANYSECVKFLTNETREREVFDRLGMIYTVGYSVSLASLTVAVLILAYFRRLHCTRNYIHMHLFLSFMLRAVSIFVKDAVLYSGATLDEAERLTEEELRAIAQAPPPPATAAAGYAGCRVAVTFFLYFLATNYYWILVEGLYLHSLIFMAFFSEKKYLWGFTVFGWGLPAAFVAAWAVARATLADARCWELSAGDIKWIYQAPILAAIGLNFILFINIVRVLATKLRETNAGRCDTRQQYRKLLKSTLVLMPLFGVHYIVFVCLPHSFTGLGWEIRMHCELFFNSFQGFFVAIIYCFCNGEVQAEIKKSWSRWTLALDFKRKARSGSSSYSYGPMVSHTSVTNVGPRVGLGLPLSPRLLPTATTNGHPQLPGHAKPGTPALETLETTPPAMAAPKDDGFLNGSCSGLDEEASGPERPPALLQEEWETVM", "assay_type": "cell-based", "settings": "cells expressing C3", "method": "(§1) COS-7 cells (ATCC) were seeded into a 96-well flat-bottomed plate (1.4 × 10^4 cells per 100 μl per well) and incubated overnight. The next day, the COS-7 cells were transfected by adding 10 μl of a mixture of hPTHR1, hPTHR2 or mutant hPTHR1 plasmid, rat PTHR1 or rat PTHR2 plasmid, or empty vector (0.1 μg per well), FuGENE HD Transfection Reagent (0.4 μl per well, Promega), and Opti-MEM I Reduced Serum Medium (10 μl per well, Life Technologies) to each well. […] The plate was placed in a 37 °C constant-temperature water bath for 20 min to allow the reaction to proceed. After incubation, the liquid in the wells was discarded, the wells were washed with the assay medium (100 μl per well), and the plate was frozen on dry ice. Next, 40 μl of 50 mmol l^−1 HCl was added to each well, and the plate was stored in a freezer set at ≤−20 °C. The cAMP concentrations were measured by using a cAMP EIA kit (GE Healthcare). EC50 values were determined from three independent experiments in duplicate by a non-linear regression Emax model (JMP ver.9.0.2, SAS Institute). The geometric mean of the EC50 values obtained in three experiments in duplicate was calculated using Microsoft Office Excel 2007. […]"}, "[2]": {"biological_target": "T2, hPTHR1–hPTHR2 chimeric receptors (C1, C2, C3) and mutant hPTHR1s (M24, M25, M26, M414V, P415L, L416V) (Homo sapiens, UniProt Q03431, L416V/M414V/P415L)", "T2 construct": "expressed in transfected cells; host or cells: COS-7 (transient)", "T2 sequence (Q03431 27-593 E93Y/D94P/K95Y/E96D/A97V/T99D/G100Y/S101A/M414V/P415L/L416V)": "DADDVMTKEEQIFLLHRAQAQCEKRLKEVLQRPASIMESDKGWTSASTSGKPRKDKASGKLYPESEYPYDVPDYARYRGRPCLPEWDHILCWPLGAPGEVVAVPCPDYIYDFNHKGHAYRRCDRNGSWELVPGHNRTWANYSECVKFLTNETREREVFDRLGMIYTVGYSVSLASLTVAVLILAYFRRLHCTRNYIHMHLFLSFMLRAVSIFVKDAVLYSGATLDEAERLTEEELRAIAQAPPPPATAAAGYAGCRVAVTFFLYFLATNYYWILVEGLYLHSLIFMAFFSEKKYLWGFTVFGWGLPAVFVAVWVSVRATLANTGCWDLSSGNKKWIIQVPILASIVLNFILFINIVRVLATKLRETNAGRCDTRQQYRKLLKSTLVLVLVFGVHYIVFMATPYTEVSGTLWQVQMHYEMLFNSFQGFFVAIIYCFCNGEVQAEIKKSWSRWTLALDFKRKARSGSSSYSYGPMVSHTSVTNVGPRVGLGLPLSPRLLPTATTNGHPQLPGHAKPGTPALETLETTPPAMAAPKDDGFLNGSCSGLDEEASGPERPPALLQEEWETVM", "assay_type": "cell-based", "settings": "mutant receptor M25 (M414, P415, L416 replaced)", "method": "as §1"}, "[3]": {"biological_target": "T3, hPTHR1–hPTHR2 chimeric receptors (C1, C2, C3) and mutant hPTHR1s (M24, M25, M26, M414V, P415L, L416V) (Homo sapiens, UniProt Q03431, P415L)", "T3 construct": "expressed in transfected cells; host or cells: COS-7 (transient)", "T3 sequence (Q03431 27-593 E93Y/D94P/K95Y/E96D/A97V/T99D/G100Y/S101A/P415L)": "T2 sequence (Q03431 27-593 E93Y/D94P/K95Y/E96D/A97V/T99D/G100Y/S101A/M414V/P415L/L416V) with V388M, V390L", "assay_type": "cell-based", "settings": "single replacement P415L", "method": "as §1"}, "[4]": {"tested_on": "hPTHR1–hPTHR2 chimeric receptors (C1, C2, C3) and mutant hPTHR1s (M24, M25, M26, M414V, P415L, L416V)", "assay_type": "cell-based, human", "method": "as §1"}},
  "note": "Substitutions are numbered along the chain they refer to.",
  "data": [
    {"smiles": "Cc1cc(N2C(=O)NC(=O)C2(C)C)cc(C)c1CCS(=O)(=O)N1CCC2(CC1)N=C(c1ccc(OC(F)(F)F)cc1)NC2=O", "note": "[PCO371, 1-{3,5-dimethyl-4-[2-({4-oxo-2-[4-(trifluoromethoxy)phenyl]-1,3,8-triazaspiro[4.5]dec-1-en-8-yl}sulfonyl)ethyl]phenyl}-5,5-dimethylimidazolidine-2,4-dione]", "values": [
      {"measurement": "cAMP response", "setting": "[1]", "value": "responded well"},
      {"measurement": "cAMP increase", "setting": "[2]", "value": "lack of cAMP increase"},
      {"measurement": "cAMP production", "setting": "[3]", "value": "dramatic reduction"},
      {"measurement": "cAMP", "setting": "[4]; cells expressing C1 or C2", "value": "did not do so"},
      {"measurement": "cAMP response", "setting": "[4]; single replacements M414V and L416V", "value": "only modest effects"}
    ]}
  ]
}
